The experiment has as its target Human TRPA1 (Homo sapiens, UniProt O75762). As to the kind of experiment: Assay 1: In vitro cellular testing of TRPA1 modulation (CHO-TREx, Fluo-3 calcium fluorescence, AITC agonist). The format is cell-based. The arrangement: expressed in transfected cells; host or cells: CHO-TREx cells (Invitrogen), vector pcDNA4/TO. The note with it: CHO-TREx cells expressing human TRPA1; Fluo-3 fluorescence (FLIPR/Tetra); agonist 15 μM allyl isothiocyanate (AITC); 30 minute antagonist incubation. The procedure:
Assay 1: In Vitro Cellular Testing of TRPA1 Modulation
Human TRPA1 (NCBI accession number NM_007332.1) was cloned into pcDNA4/TO. CHO-TREx cells (Invitrogen, Carlsbad, Calif.) were stably transfected with pcDNA4/TO-TRPA1 using lipofection to generate a clonal cell line that expressed human TRPA1 in a tetracycline-inducible manner. Culture medium used was Ham's F-12 supplemented with 10% fetal bovine serum, 2 mM L-glutamine, 5 μg/ml blasticidin and 200 μg/ml zeocin. Cells were seeded in black-walled clear-bottom 96-well plates at a density of 50,000 cells per well and cultured overnight at 37° C. with 5% CO2 in culture medium supplemented with 1 μg/ml tetracycline. On the day of the experiment, cells were washed 3 times with HEPES buffered saline (in mM: NaCl 137, MgCl2 0.5, KCl 2, dextrose 5, CaCl2 2 and HEPES 10; pH 7.4). Cells were then loaded with calcium-sensitive fluorescent dye by incubation in the presence of 4 μM Fluo-3 AM (TefLabs, Austin, Tex.) at room temperature in the dark for 60 minutes. After incubation with dye, cells were washed in assay buffer and, if appropriate, antagonists were added at this time. Following a further 30 minute incubation, cells were assayed using a Fluorometric Imaging Plate Reader (FLIPR™) or a Tetra (both manufactured by Molecular Devices, CA) to simultaneously monitor Fluo-3 fluorescence in all wells (λexcitation=488 nm, λemission=540 nm). Changes in fluorescence were monitored for 3 minutes after the addition of 15 μM allyl isothiocyanate (AITC) as an agonist. Concentration-dependence of receptor blocking was determined by exposing each well of cells in duplicate rows of a 96-well plate to a serial dilution of test compound. The concentration series usually started at 10 μM with a three-fold serial decrement in concentration. The magnitude of the response to agonist challenge was determined by measuring the fluorescence before and 3 minutes after the addition of the agonist. The degree of blocking was determined by comparing the response to that of negative (no added antagonist) and positive (10 μM ruthenium red) control wells. Data were analyzed using a non-linear regression program (Origin; OriginLab, MA) to fit the concentration-response data to a Hill function. Antagonist potencies were determined as the concentration required to produce 50% reduction in the response as compared to the negative and positive controls.
Chain of Human TRPA1 (O75762 whole entry): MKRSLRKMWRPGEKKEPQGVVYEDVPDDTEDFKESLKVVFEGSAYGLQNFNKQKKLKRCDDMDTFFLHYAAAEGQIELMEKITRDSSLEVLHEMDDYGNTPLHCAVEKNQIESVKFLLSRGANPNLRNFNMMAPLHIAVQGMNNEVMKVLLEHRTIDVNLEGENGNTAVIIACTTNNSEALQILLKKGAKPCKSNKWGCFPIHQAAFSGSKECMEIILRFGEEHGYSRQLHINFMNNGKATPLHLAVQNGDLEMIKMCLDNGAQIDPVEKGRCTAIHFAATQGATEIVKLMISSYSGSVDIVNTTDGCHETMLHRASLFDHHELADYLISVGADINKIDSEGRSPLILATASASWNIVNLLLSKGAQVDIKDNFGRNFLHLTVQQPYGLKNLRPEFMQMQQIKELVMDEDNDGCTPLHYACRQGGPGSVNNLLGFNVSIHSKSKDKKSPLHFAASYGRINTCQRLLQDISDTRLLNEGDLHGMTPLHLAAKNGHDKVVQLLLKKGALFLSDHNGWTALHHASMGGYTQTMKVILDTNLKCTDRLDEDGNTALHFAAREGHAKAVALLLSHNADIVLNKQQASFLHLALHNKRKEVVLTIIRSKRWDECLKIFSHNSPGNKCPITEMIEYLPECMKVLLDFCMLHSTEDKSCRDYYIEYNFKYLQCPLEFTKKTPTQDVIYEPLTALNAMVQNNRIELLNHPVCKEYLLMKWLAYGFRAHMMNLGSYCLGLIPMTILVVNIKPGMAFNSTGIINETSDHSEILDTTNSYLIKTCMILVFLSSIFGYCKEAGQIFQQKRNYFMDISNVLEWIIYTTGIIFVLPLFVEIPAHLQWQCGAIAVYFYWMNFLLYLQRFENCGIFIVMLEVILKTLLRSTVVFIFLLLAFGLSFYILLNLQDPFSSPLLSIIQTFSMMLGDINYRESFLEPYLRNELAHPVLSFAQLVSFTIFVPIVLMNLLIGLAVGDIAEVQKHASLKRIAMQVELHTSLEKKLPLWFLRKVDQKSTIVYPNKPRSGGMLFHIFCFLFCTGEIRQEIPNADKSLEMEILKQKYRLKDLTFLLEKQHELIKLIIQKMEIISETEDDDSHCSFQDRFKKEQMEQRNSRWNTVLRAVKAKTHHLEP
On to `C[C@H](NC(=O)[C@@H]1CCCN1S(=O)(=O)c1ccc(Cl)s1)c1cccc(-c2ccc(C(F)(F)F)cc2)c1` [Example 115, (1S,2S)-1-(5-Chloro-thiophene-2-sulfonyl)-pyrrolidine-2-carboxylic acid [1-(4′-trifluoromethylbiphenyl-3-yl)ethyl]-amide], for which the IC50 (commonly the midpoint of a concentration-inhibition curve) stood at 15 nM.

Consider `O=C(NCc1cccc(-c2ccc(Cl)nc2)c1)[C@@H]1CCCN1S(=O)(=O)c1ccc(F)cc1` [Example 83, 1-(4-Fluoro-benzenesulfonyl)-pyrrolidine-2S-carboxylic acid 3-(6-chloro-pyridin-3-yl)-benzylamide], for which the IC50 came out at 73 nM. Consider `O=C(NCc1cc(-c2ccc(C(F)(F)F)cc2)nc(N2CCN(Cc3cccnc3)CC2)c1)[C@@H]1CC(F)(F)CN1S(=O)(=O)c1ccc(F)cc1` [Example 363, 4,4-Difluoro-1-[(4-fluorophenyl)sulfonyl]-N-({2-[4-(pyridin-3-ylmethyl)piperazin-1-yl]-6-[4-(trifluoromethyl)phenyl]pyridin-4-yl}methyl)-L-prolinamide], for which the IC50 amounted to 4870 nM. With `CC(Nc1cc(CNC(=O)[C@@H]2C=CCN2S(=O)(=O)c2ccc(F)cc2)cc(-c2ccc(C(F)(F)F)cc2)n1)c1ccccc1` (stereo partly drawn) [Example 406, (2S)-1-[(4-Fluorophenyl)sulfonyl]-N-({2-[(1-phenylethyl)amino]-6-[4-(trifluoromethyl)phenyl]pyridin-4-yl}methyl)-2,5-dihydro-1H-pyrrole-2-carboxamide], the IC50 was found to be 833 nM. The same measure for `CN(C)c1cc(CNC(=O)[C@@H]2CCCN2S(=O)(=O)c2ccc(Cl)s2)cc(-c2ccc(C(F)(F)F)cc2)n1` [Example 332, 1-[(5-Chlorothiophen-2-yl)sulfonyl]-N-({2-(dimethylamino)-6-[4-(trifluoromethyl)phenyl]pyridin-4-yl}methyl)-L-prolinamide]: 58 nM. Consider `O=C(NCc1cccc(-c2cccc(C(F)(F)F)c2)c1)[C@@H]1CCCN1S(=O)(=O)c1ccc(F)cc1` [Example 66, 1-(4-Fluorobenzenesulfonyl)-pyrrolidine-2S-carboxylic acid (3′-trifluoromethylbiphenyl-3-ylmethyl)-amide], for which the half-inhibitory concentration (IC50) amounted to 253 nM. With `C[C@@H](NC(=O)[C@@H]1CCCN1S(=O)(=O)c1ccc(F)cc1)c1cccc(-c2ccc(C(F)(F)F)cc2)c1` [Example 114, (1R,2S)-1-(4-Fluoro-benzenesulfonyl)-pyrrolidine-2-carboxylic acid [1-(4′-trifluoromethyl-biphenyl-3-yl)ethyl]-amide], the IC50 is 2930 nM. The figure for `O=C(NCc1cc(-c2ccc(OC(F)(F)F)cc2)ncn1)[C@@H]1CCCN1S(=O)(=O)c1ccc(F)cc1` [Example 177, 1-(4-Fluorobenzenesulfonyl)-pyrrolidine-2S-carboxylic acid [6-(4-trifluoromethoxyphenyl)-pyrimidin-4-ylmethyl]-amide] is 71 nM; for `O=C(NCc1ccnc(-c2ccc(C(F)(F)F)cc2)n1)[C@@H]1CCCN1S(=O)(=O)c1ccc(F)cc1` [Example 187, (2S)-1-(4-Fluoro-benzenesulfonyl)-pyrrolidine-2-carboxylic acid [2-(4-trifluoromethyl-phenyl)-pyrimidin-4-ylmethyl]-amide] it is 806 nM.

`O=C(NCc1cc(-c2ccc(C(F)(F)F)cc2)ncn1)[C@@H]1CCCN1S(=O)(=O)c1ccc(F)cc1` [Example 11, 1-(4-Fluoro-benzenesulfonyl)-pyrrolidine-2S-carboxylic acid [6-(4-trifluoromethyl-phenyl)-pyrimidin-4-ylmethyl]-amide]: the concentration for half-maximal inhibition (IC50) is 65 nM. Turning to `Cc1ccc(-c2cccc(CNC(=O)[C@@H]3CCCN3S(=O)(=O)c3ccc(F)cc3)c2)cn1` [Example 87, 1-(4-Fluorobenzenesulfonyl)-pyrrolidine-2S-carboxylic acid 3-(6-methylpyridin-3-yl)-benzyl amide], the IC50 is 1790 nM. `O=C(NCc1ccnc(-c2ccc(OC(F)(F)F)cc2)c1)[C@@H]1CCCN1S(=O)(=O)c1ccc(Cl)s1` [Example 130, 1-(5-Chloro-thiophene-2-sulfonyl)-pyrrolidine-2S-carboxylic acid [2-(4-trifluoromethoxy-phenyl)-pyridin-4-ylmethyl]-amide]: the IC50 is 6 nM. As to `O=C(NCc1cc(-c2ccc(C(F)(F)F)cc2)nc(N2CCN(Cc3ccccc3)CC2)c1)[C@@H]1CCCN1S(=O)(=O)c1ccc(F)cc1` [Example 373, N-({2-(4-Benzylpiperazin-1-yl)-6-[4-(trifluoromethyl)phenyl]pyridin-4-yl}methyl)-1-[(4-fluorophenyl)sulfonyl]-L-prolinamide], the IC50 was found to be 43 nM.

Take `CN(C)c1cc(CNC(=O)[C@@H]2CCCN2S(=O)(=O)c2ccc(F)cc2)cc(-c2ccc(C(F)(F)F)cc2)n1` [Example 331, N-({2-(Dimethylamino)-6-[4-(trifluoromethyl)phenyl]pyridin-4-yl}methyl)-1-[(4-fluorophenyl)sulfonyl]-L-prolinamide]: the IC50 turned out to be 176 nM. As to `O=C(NCc1cc(-c2ccc(C(F)(F)F)cc2)nc(N2CCN(Cc3ccncc3)CC2)c1)[C@@H]1CCCN1S(=O)(=O)c1ccc(F)cc1` [Example 342, 1-[(4-Fluorophenyl)sulfonyl]-N-({2-[4-(pyridin-4-ylmethyl)piperazin-1-yl]-6-[4-(trifluoromethyl)phenyl]pyridin-4-yl}methyl)-L-prolinamide], the IC50 worked out at 296 nM. On to `O=C(NCc1cc(-c2ccc(C(F)(F)F)cc2)nc(N2CCN(Cc3ccncc3)CC2)c1)[C@@H]1C=CCN1S(=O)(=O)c1ccc(F)cc1` [Example 329, (2S)-1-[(4-Fluorophenyl)sulfonyl]-N-({2-[4-(pyridin-4-ylmethyl)piperazin-1-yl]-6-[4-(trifluoromethyl)phenyl]pyridin-4-yl}methyl)-2,5-dihydro-1H-pyrrole-2-carboxamide], for which the IC50 came out at 1760 nM.

Regarding `O=C(NCc1cccc(-c2ccc(C(F)(F)F)c(F)c2)c1)[C@@H]1CCCN1S(=O)(=O)c1ccc(F)cc1` [Example 71, 1-(4-Fluorobenzenesulfonyl)-pyrrolidine-2S-carboxylic acid (3′-fluoro-4′-trifluoromethylbiphenyl-3-ylmethyl)-amide], the IC50 was 14 nM.

As for `CC(C)(C)OC(=O)N[C@@H]1CCN(c2nc(CNC(=O)[C@@H]3CCCN3S(=O)(=O)c3ccc(Cl)s3)cc(-c3ccc(C(F)(F)F)cc3)n2)C1` [Example 35, {1-[4-({[1-(5-Chloro-thiophene-2-sulfonyl)-pyrrolidine-2S-carbonyl]-amino}-methyl)-6-(4-trifluoromethyl-phenyl)-pyrimidin-2-yl]-pyrrolidin-3R-yl}-carbamic acid tert-butyl ester], the 50% inhibitory concentration (IC50) is 83 nM.

`CC(Nc1cc(CNC(=O)[C@@H]2C=CCN2S(=O)(=O)c2ccc(F)cc2)cc(-c2ccc(C(F)(F)F)cc2)n1)c1cccnc1` (stereo partly drawn) [Example 350, (2S)-1-[(4-Fluorophenyl)sulfonyl]-N-({2-[(1-pyridin-3-ylethyl)amino]-6-[4-(trifluoromethyl)phenyl]pyridin-4-yl}methyl)-2,5-dihydro-1H-pyrrole-2-carboxamide]: the IC50 is 7260 nM. For the compound `CC(C)CN1CCN(c2nc(CNC(=O)[C@@H]3C=CCN3S(=O)(=O)c3ccc(Cl)s3)cc(-c3ccc(C(F)(F)F)cc3)n2)CC1` [Example 56, 1-(5-Chloro-thiophene-2-sulfonyl)-2,5-dihydro-1H-pyrrole-2S-carboxylic acid [2-(4-isobutyl-piperazin-1-yl)-6-(4-trifluoromethyl-phenyl)-pyrimidin-4-ylmethyl]-amide], the IC50 worked out at 51 nM. On to `O=C(NCc1cc(-c2ccc(C(F)(F)F)cc2)nc(N2CCN(Cc3ccncc3)CC2)c1)[C@@H]1C=CCN1S(=O)(=O)c1ccc(Cl)s1` [Example 340, (2S)-1-[(5-Chlorothiophen-2-yl)sulfonyl]-N-({2-[4-(pyridin-4-ylmethyl)piperazin-1-yl]-6-[4-(trifluoromethyl)phenyl]pyridin-4-yl}methyl)-2,5-dihydro-1H-pyrrole-2-carboxamide], for which the IC50 came out at 210 nM. For `O=C(NCc1cc(-c2ccc(C(F)(F)F)cc2)nc(N2CCN(Cc3ccncc3)CC2)c1)[C@@H]1CC(F)(F)CN1S(=O)(=O)c1ccc(Cl)s1` [Example 381, 1-[(5-Chlorothiophen-2-yl)sulfonyl]-4,4-difluoro-N-({2-[4-(pyridin-4-ylmethyl)piperazin-1-yl]-6-[4-(trifluoromethyl)phenyl]pyridin-4-yl}methyl)-L-prolinamide], the IC50 stood at 729 nM.
